Active and inactive are the calls of the source. No cut-off for these calls is given here.
Experiments:
[1] = biological target: T1, Tubulin (Homo sapiens) (UniProt P68371+Q9H4B7+P0DPH7+P68366+Q13509+Q71U36+P04350+Q3ZCM7+P07437+P68363+Q9BQE3+Q6PEY2+Q13885+Q9BVA1+Q9BUF5); assay: Binding affinity to tubulin (unknown origin) at colchicine binding site assessed as tubulin-colchicine complex competition rate at 1.25 uM preincubated for 45 mins followed by colchicine addition by fluorescence based assay relative to control; type: protein-complex assay
[2] = system: 4T1; assay: Antitumor activity against mouse 4T1 cells allografted in Balb/c mouse assessed as tumor weight at 5 mg/kg, iv administered every other day measured after 12 days (reference value: 448 mg); type: functional; conditions: time 12 day
[3] = system: SGC-7901; assay: Induction of cell cycle arrest in human SGC-7901 cells assessed as accumulation at G2/M phase at 2 times IC50 incubated for 6 hrs by PI/RNase staining based flow cytometry (reference value: 10 %); type: functional
[4] = system: SGC-7901; assay: Induction of cell cycle arrest in human SGC-7901 cells assessed as accumulation at sub-G1 phase at 2 times IC50 incubated for 72 hrs by PI/RNase staining based flow cytometry (reference value: 2 %); type: functional
[5] = system: 4T1; assay: Antitumor activity against mouse 4T1 cells allografted in Balb/c mouse assessed as tumor weight at 20 mg/kg, iv administered every other day measured after 12 days (reference value: 448 mg); type: functional; conditions: time 12 day
[6] = system: SGC-7901; assay: Antiproliferative activity against human SGC-7901 cells assessed as cell growth inhibition incubated for 72 hrs by MTT assay; type: functional, cell-based; conditions: SGC-7901, 72 h
[7] = biological target: T1, Tubulin (Homo sapiens); assay: Disruption of microtubule organization in human SGC-7901 cells assessed as shrinkage of microtubule network around nucleus at 2 times IC50 incubated for 12 hrs by […] based analysis; type: cell-based
[8] = system: SGC-7901; assay: Induction of cell cycle arrest in human SGC-7901 cells assessed as accumulation at S phase at 2 times IC50 incubated for 48 hrs by PI/RNase staining based flow cytometry (reference value: 46 %); type: functional
[9] = Toxicity in Balb/c mouse allografted with mouse 4T1 cells assessed as decrease in body weight at 20 mg/kg, iv administered every other day measured for 12 days; type: organism-based; conditions: in vivo, 288 h, time 12 day
[10] = system: SGC-7901; assay: Induction of cell cycle arrest in human SGC-7901 cells assessed as accumulation at G2/M phase at 2 times IC50 incubated for 48 hrs by PI/RNase staining based flow cytometry (reference value: 10 %); type: functional
[11] = system: SGC-7901; assay: Induction of cell cycle arrest in human SGC-7901 cells assessed as accumulation at S phase at 2 times IC50 incubated for 12 hrs by PI/RNase staining based flow cytometry (reference value: 46 %); type: functional
[12] = system: SGC-7901; assay: Induction of cell cycle arrest in human SGC-7901 cells assessed as accumulation at S phase at 2 times IC50 incubated for 24 hrs by PI/RNase staining based flow cytometry (reference value: 46 %); type: functional
[13] = system: 4T1; assay: Antitumor activity against mouse 4T1 cells allografted in Balb/c mouse assessed as tumor growth inhibition at 5 mg/kg, iv administered every other day measured for 12 days relative to control; type: functional; conditions: 4T1, 288 h, time 12 day, read-out: TGI
[14] = system: MCF7; assay: Antiproliferative activity against human MCF7 cells assessed as cell growth inhibition incubated for 72 hrs by MTT assay; type: functional, cell-based; conditions: MCF7, 72 h
[15] = system: SGC-7901; assay: Induction of cell cycle arrest in human SGC-7901 cells assessed as accumulation at G0/G1 phase at 2 times IC50 incubated for 6 hrs by PI/RNase staining based flow cytometry (reference value: 42 %); type: functional
[16] = system: 4T1; assay: Antitumor activity against mouse 4T1 cells allografted in Balb/c mouse assessed as decrease in tumor volume at 20 mg/kg, iv administered every other day measured for 12 days; type: functional, organism-based; conditions: time 12.0 day
[17] = biological target: Tubulin; assay: (§1) Inhibition of tubulin polymerization (unknown origin) by fluorescence based assay; type: protein-complex assay, Homo sapiens
[18] = biological target: T1, Tubulin (Homo sapiens); assay: as §1; type: protein-complex assay
[19] = system: SGC-7901; assay: Induction of cell cycle arrest in human SGC-7901 cells assessed as accumulation at sub-G1 phase at 2 times IC50 incubated for 6 hrs by PI/RNase staining based flow cytometry (reference value: 2 %); type: functional
[20] = system: 4T1; assay: Antitumor activity against mouse 4T1 cells allografted in Balb/c mouse assessed as tumor growth inhibition at 10 mg/kg, iv administered every other day measured for 12 days relative to control; type: functional; conditions: 4T1, 288 h, time 12 day, read-out: TGI
[21] = system: SGC-7901; assay: Induction of cell cycle arrest in human SGC-7901 cells assessed as accumulation at sub-G1 phase at 2 times IC50 incubated for 24 hrs by PI/RNase staining based flow cytometry (reference value: 2 %); type: functional
[22] = system: SGC-7901; assay: Induction of cell cycle arrest in human SGC-7901 cells assessed as accumulation at S phase at 2 times IC50 incubated for 6 hrs by PI/RNase staining based flow cytometry (reference value: 46 %); type: functional
[23] = system: SGC-7901; assay: Induction of cell cycle arrest in human SGC-7901 cells assessed as accumulation at S phase at 2 times IC50 incubated for 72 hrs by PI/RNase staining based flow cytometry (reference value: 46 %); type: functional
[24] = system: SGC-7901; assay: Induction of cell cycle arrest in human SGC-7901 cells assessed as accumulation at G0/G1 phase at 2 times IC50 incubated for 24 hrs by PI/RNase staining based flow cytometry (reference value: 42 %); type: functional
[25] = system: 4T1; assay: Antitumor activity against mouse 4T1 cells allografted in Balb/c mouse assessed as tumor growth inhibition at 20 mg/kg, iv administered every other day measured for 12 days relative to control; type: functional; conditions: 4T1, 288 h, time 12 day, read-out: TGI
[26] = system: SGC-7901; assay: Induction of cell cycle arrest in human SGC-7901 cells assessed as accumulation at G0/G1 phase at 2 times IC50 incubated for 12 hrs by PI/RNase staining based flow cytometry (reference value: 42 %); type: functional
[27] = system: SGC-7901; assay: Induction of cell cycle arrest in human SGC-7901 cells assessed as accumulation at G2/M phase at 2 times IC50 incubated for 12 hrs by PI/RNase staining based flow cytometry (reference value: 10 %); type: functional
[28] = system: 4T1; assay: Antitumor activity against mouse 4T1 cells allografted in Balb/c mouse assessed as tumor weight at 10 mg/kg, iv administered every other day measured after 12 days (reference value: 448 mg); type: functional; conditions: time 12 day
[29] = system: HT-1080; assay: Antiproliferative activity against human HT-1080 cells assessed as cell growth inhibition incubated for 72 hrs by MTT assay; type: functional, cell-based; conditions: HT-1080, 72 h
[30] = system: SGC-7901; assay: Induction of cell cycle arrest in human SGC-7901 cells assessed as accumulation at G2/M phase at 2 times IC50 incubated for 24 hrs by PI/RNase staining based flow cytometry (reference value: 10 %); type: functional
[31] = Selectivity index, ratio of IC50 for HUVEC cells to IC50 for human SGC-7901 cells; type: functional
[32] = system: SGC-7901; assay: Induction of cell cycle arrest in human SGC-7901 cells assessed as accumulation at G2/M phase at 2 times IC50 incubated for 72 hrs by PI/RNase staining based flow cytometry (reference value: 10 %); type: functional
[33] = Cytotoxicity against HUVEC cells assessed as cell growth inhibition incubated for 72 hrs by MTT assay; type: toxicity, cell-based; conditions: human
[34] = system: SGC-7901; assay: Induction of cell cycle arrest in human SGC-7901 cells assessed as accumulation at G0/G1 phase at 2 times IC50 incubated for 48 hrs by PI/RNase staining based flow cytometry (reference value: 42 %); type: functional
[35] = system: 4T1; assay: Cytotoxicity against mouse 4T1 cells assessed as cell growth inhibition incubated for 72 hrs by MTT assay; type: functional, cell-based; conditions: 4T1, 72 h
[36] = system: SGC-7901; assay: Induction of cell cycle arrest in human SGC-7901 cells assessed as accumulation at sub-G1 phase at 2 times IC50 incubated for 48 hrs by PI/RNase staining based flow cytometry (reference value: 2 %); type: functional
[37] = system: SGC-7901; assay: Induction of cell cycle arrest in human SGC-7901 cells assessed as accumulation at sub-G1 phase at 2 times IC50 incubated for 12 hrs by PI/RNase staining based flow cytometry (reference value: 2 %); type: functional

Work on `COc1cc(-c2nc3scc(-c4cc(Cl)cc(Cl)c4)n3n2)cc(OC)c1OC` yielded an Activity [1] of 37.9%, an Activity [2] of 227.5 mg and an Activity [3] of 13%. It also gave an Activity [4] of 93%, an Activity [5] of 71.76 mg and an IC50 [6] of 210 nM. For the same compound, the Activity [7] was “Active”, the Activity [8] was 8% and the Activity [9] was “Non-Toxic”. For the same compound, the Activity [10] was 19%, the Activity [11] was 31% and the Activity [12] was 21%. The inhibition in vivo at 5 mg/kg [13] was 49.2%, the IC50 [14] was 2130 nM and the Activity [15] was 36%. For the same compound, the Activity [16] was “Active”, the IC50 [17] was 6870 nM and the inhibition [18] was “Dose-Dependent Effect”. The Activity [19] was 2%, the inhibition in vivo at 10 mg/kg [20] was 58.1% and the Activity [21] was 21%. For the same compound, the Activity [22] was 49%, the Activity [23] was 3% and the Activity [24] was 16%. The inhibition in vivo at 20 mg/kg [25] was 84%, the Activity [26] was 21% and the Activity [27] was 31%. The Activity [28] was 187.74 mg, the IC50 [29] was 1180 nM and the Activity [30] was 42%. The “Ratio IC50” value [31] was 62.62, the Activity [32] was 4% and the IC50 at 72 h [33] was 13200 nM. The Activity [34] was 4%, the IC50 [35] was 341 nM and the Activity [36] was 69%. For the same compound, the Activity [37] was 17%.

Source: ChEMBL document CHEMBL5370543, “Discovery of 6-aryl-2-(3,4,5-trimethoxyphenyl)thiazole[3,2-b][1,2,4]triazoles as potent tubulin polymerization inhibitors” (Eur J Med Chem, 2023)
